Entries after “also recorded” stand apart in the source; their conditions may differ.

One may read the inhibition as the drop in the measured response relative to a control, in per cent. A high value points to a strong effect.

Test [1] concerns rat primary hepatocytes. Kind of test: Apoptosis in isolated rat hepatocytes with DCA, TGF-β1 or okadaic acid ± UDCA (Example III). The class given is cell-based. Conditions: for percentage of apoptotic cells: 50 μM deoxycholic acid 4 hours, 1 nM TGF-β1 24 hours, 25 nM okadaic acid 16 hours. The text has this:
Cell culture and preparation of rat primary hepatocytes. Rat primary hepatocytes were isolated from male Sprague-Dawley rats (200-250 g) by collagenase perfusion as described by Mariasb, et al., J. Biol. Chem. 261, 9583-9586 (1986). Briefly, rats were anesthesized with phenobarbitol and the livers were perfused with 0.05% collagenase. Hepatocyte suspensions were obtained by passing digested livers through 0.125 mm gauze and washing cells in modified Eagle's medium (MEM) (Life Technologies, Inc., Grand Island, N.Y.). Cell viability was determined by trypan blue exclusion and was typically 85 to 90%. After isolation, hepatocytes were resuspended in William's E medium (Life Technologies, Inc.) supplemented with 26 mM sodium bicarbonate, 23 mM HEPES, 0.01 U/mL insulin, 2 mM L-glutamine, 10 nM dexamethasone, 5.5 mM glucose, 100 U/ml penicillin and 100 U/ml streptomycin and then plated on 35×10 mm […] tissue culture dishes (Becton Dickinson Labware, Lincoln Park, N.J.) at 1.0×10^6 cells/ml. The cells were maintained at 37° C. in a humidified atmosphere of 5% CO2 for 3 h. Plates were then washed with medium to remove dead cells, and medium containing 10% heat-inactivated FBS (55° C. for 30 min) was added (Atlanta Biologicals, Inc., Norcross, Ga.).
Incubation of cells with inducers of apoptosis. Freshly isolated rat hepatocytes were cultured for 3 h as described above and then incubated with William's E medium supplemented with either 50 μM DCA for 4 h, 1 nM TGF-β1 for 24 h, or 25 nM okadaic acid for 16 h, in the presence or absence of 100 μM UDCA, or no addition (control). The medium was gently removed at the indicated time points and scored for nonviable cells by trypan blue dye exclusion. The attached cells were fixed for morphologic assessment of apoptotic changes. Morphological evaluation of apoptosis. The medium was gently removed at the indicated time points to prevent detachment of cells. Cells were fixed with 4% formaldehyde in PBS, pH 7.4, for 10 min at room temperature, incubated with Hoechst dye 33258 (Sigma Chemical Co., St. Louis, Mo.) at […] in PBS for 5 min, washed with PBS and mounted with PBS:glycerol (3:1, v/v). Fluorescence was visualized with a Zeiss standard fluorescence microscope (Carl Zeiss, Inc., Thornwood, N.Y.). Photographs were taken with Kodak Ektar-1000 film (Eastman Kodak Co.). Stained nuclei were scored by blind analysis and categorized according to the condensation and staining characteristics of chromatin. Normal nuclei were identified as noncondensed chromatin dispersed over the entire nucleus. […] Three fields per dish of approximately 500 nuclei were counted; mean values are expressed as the percent of apoptotic nuclei.

The subject of test [2] is HuH-7 cells. Kind of test: TGF-β1-induced apoptosis, Hoechst staining, HuH-7 cells. The class given is cell-based, human. Here is the method:
Incubation of cells with ethanol, TGF-β1, anti-Fas antibody or okadaic acid. Freshly isolated rat hepatocytes were cultured for 3 h as described above and then incubated with William's E medium supplemented with either 0.5% ethanol, 50 μM UDCA, ethanol plus UDCA, or no addition (control) for 2 h and 4 h. HuH-7 cells were incubated with Dulbecco's medium supplemented with either 1 nM TGF-β1 (R & D Systems, Minneapolis, Minn.), 100 μM UDCA, TGF-β1+UDCA, or no addition (control) for 24 h, 48 h, and 72 h. Hep G2 cells were incubated with Dulbecco's medium supplemented with either 0.5 μg/ml of anti-Fas antibody CH-11 (Upstate Biotechnology, Inc., Lake Placid, N.Y.), 100 μM UDCA, CH-11+UDCA, or no addition for 48 h. Both HuH-7 cells and human osteogenic sarcoma Saos-2 cells were cultured in Dulbecco's medium supplemented with either 50 nM okadaic acid (Boehringer Mannheim Biochemicals, Inc, Indianapolis, Ind.), 100 μM UDCA, okadaic acid+UDCA, or no addition for 48 h. In all the combination groups, cells were pretreated with UDCA alone for 60 min prior to addition of ethanol, TGF-β1, anti-Fas antibody or okadaic acid.
HuH-7 cells were treated with 1 nM TGF-β1, 100 μM of either hyodeoxycholic acid, taurocholic acid, tauroursodeoxycholic acid (Sigma Chemical Co.) or glycoursodeoxycholic acid (Steraloids Inc., Wilton, N.H.), or a combination of TGF-β1 plus the individual bile acids for 72 h. HeLa and Cos-7 cells were incubated with 50 nM okadaic acid, 100 μM of either tauroursodeoxycholic acid or glycoursodeoxycholic acid, or a combination of okadaic acid plus the individual bile acids for 24 h. In the combination groups, cells were pretreated with the bile acid alone for 60 min prior to incuation with TGF-β1 or okadaic acid. In all studies, the medium was gently removed at the indicated times and scored for nonviable cells. The attached cells were fixed for morphologic evaluation of apoptosis.
Morphological evaluation of apoptosis. […] Fluorescence was visualized with a Zeiss standard fluorescence microscope (Carl Zeiss, Inc., Thornwood, N.Y.). Photographs were taken with Kodak Ektar-1000 film (Eastman Kodak Co.). Stained nuclei were scored by blind analysis and categorized according to the condensation and staining characteristics of chromatin. Normal nuclei were identified as noncondensed chromatin dispersed over the entire nucleus. Apoptotic nuclei were identified by condensed chromatin, contiguous to the nuclear membrane, as well as nuclear fragmentation of condensed chromatin. Three fields per dish of approximately 500 nuclei were counted; mean values are expressed as the percent of apoptotic nuclei.

[3] abbreviates: 1 nM TGF-β1, 100 μM bile acid, 72 h.

With `C[C@H](CCC(=O)O)[C@H]1CC[C@H]2[C@@H]3CC[C@@H]4C[C@H](O)CC[C@]4(C)[C@H]3C[C@H](O)[C@]12C` [DCA, deoxycholic acid], the “percentage of apoptotic cells” value in test [1] is given as 7%.
As to `C[C@H](CCC(=O)O)[C@H]1CC[C@H]2[C@@H]3[C@@H](O)C[C@@H]4C[C@H](O)CC[C@]4(C)[C@H]3CC[C@]12C` [UDCA, ursodeoxycholic acid], in test [1] (Rattus norvegicus, Hepatocyte, 100 μM UDCA with each of the apoptosis-inducing agents), the inhibition at 100 µM was above 80%. Further, the “decrease of TGF-β1 apoptosis” value in test [2] (1 nM TGF-β1, 100 μM bile acid, 24 h) was “approximately 49%”; in test [2] (1 nM TGF-β1, 100 μM bile acid, 48 h) it was around 44%; in test [2] (setting [3]), around 45%. The “Inhibition % Apoptosis” value in test [2] (inducer TGF-β1, HuH-7, inhibition by UDCA) was 44.2 ± 11.2%.
In the case of `C[C@H](CCC(=O)O)[C@H]1CC[C@H]2[C@@H]3C[C@H](O)[C@@H]4C[C@H](O)CC[C@]4(C)[C@H]3CC[C@]12C` [hyodeoxycholic acid], the “inhibition of TGF-β1-induced apoptosis” value in test [2] (setting [3]) is recorded as “did not; also recorded: neither hyodeoxycholic acid nor taurocholic acid showed inhibition”.
With `C=C1[C@@H](O)[C@@H]2O[C@]3(CC[C@H](/C=C/[C@@H](C)[C@@H]4CC(C)=C[C@@]5(O[C@H](C[C@@](C)(O)C(=O)O)CC[C@H]5O)O4)O3)CC[C@H]2O[C@@H]1[C@@H](O)C[C@H](C)[C@H]1O[C@@]2(CCCCO2)CC[C@H]1C` [okadaic acid], the “percentage of apoptotic cells” value in test [1] is recorded as 75%.
With “TGF-β1: transforming growth factor β1, nonmembrane damaging inducer of apoptosis”, the “percentage of apoptotic cells” value in test [1] was 30%. Further, in test [2] (1 nM TGF-β1), the induction of apoptosis entry is on record as “significant apoptosis”.

The record behind these values is patent US20030044413A1, “Methods of limiting apoptosis of cells” (Regents of the University of Minnesota, priority 1998, published 2003).
